Non-standard residues stand in square brackets, D forms with d. Residues, ends and D or L forms follow the SMILES beside them. d1Nal = N[C@H](Cc1cccc2ccccc12)C(=O)O
Experiments:
Escherichia coli = assay: microbe, parasite or virus in culture; type: cell-based
Method: (§1) Acne vulgaris may involve a microbial consortium. Although P. acnes may be a prominent member of such a consortium, other uncharacterized bacteria may also participate. The microbial activity of XMP.629 as an acetate gel as described in Example 5 and other commonly used antibiotics was evaluated against a panel of human pathogens using standardized NCCLS protocols. […] Lesser potency was observed against the gram-negative organisms B. fragilis, B. cepacia, P. mirabilis and S. marcescens, which are often refractory to many antimicrobial compounds.

Bacteroides fragilis = assay: microbe, parasite or virus in culture; type: cell-based; settings: Bacteroides fragilis 25285
Method: as §1

[1] = system: Actinobacillus actinomycetemcomitans; assay: microbe, parasite or virus in culture; type: cell-based; settings: Actinobacillus actinomycetemcomitans 43718
Method: as §1

Serratia marcescens = assay: microbe, parasite or virus in culture; type: cell-based
Method: as §1

Prevotella intermedia = assay: microbe, parasite or virus in culture; type: cell-based; settings: Prevotella intermedia 25261
Method: as §1

Proteus mirabilis = assay: microbe, parasite or virus in culture; type: cell-based; settings: Proteus mirabilis 29852
Method: as §1

Porphyromonas gingivalis = assay: microbe, parasite or virus in culture; type: cell-based; settings: Porphyromonas gingivalis 33277
Method: as §1

Salmonella ryphimurium = assay: microbe, parasite or virus in culture; type: cell-based; settings: Salmonella ryphimurium SL770
Method: as §1

Klebsiella pneumoniae = assay: microbe, parasite or virus in culture; type: cell-based
Method: as §1

Burkholderia cepacia = assay: microbe, parasite or virus in culture; type: cell-based; settings: Burkholderia cepacia 25416
Method: as §1

CHO cells = assay: CHO chromosomal aberration test; type: cell-based, Chinese Hamster; settings: with and without metabolic activation
Method: XMP.629 was next evaluated for activity to induce chromosomal aberrations in cultured CHO cells with and without an exogenous metabolic activation system. […] The assay design for these chromosomal aberration studies was based on OECD Guideline 473, updated and adopted Jul. 21, 1997. XMP.629 was provided as a 20.0 mg/mL stock in 10 mM sodium acetate buffer (pH 6). This solution and its dilutions prepared in cell culture grade water were dosed at 10% vol/vol (100 pUL/mL). The vehicle control cultures were treated with 100 μL/mL of cell culture grade water. In the initial assay, the treatment period was for 3.0 hours with and without metabolic activation at various concentrations of XMP.629 (30, 60, 120, 240, 480, 686, 980, 1400 and 2000 μg/mL) and cultures were harvested 20.0 hours from the initiation of treatment. Those cultures that were treated with 30, 60 and 120 pg/mL were analyzed for chromosomal aberrations. No significant increase in cells with chromosomal aberrations, polyploidy or endoreduplication was observed. In a confirmatory assay that included lower doses, the treatment period was 20 hours without metabolic activation (3.75, 7.5,15, 30, 60, 90, 120, 160, 200 and 240 μg/mL) and 3 hours with metabolic activation (15, 30, 60, 90, 120, 160, 200, 240, 300 and 360 μg/mL). […]

[2] = system: P. acnes strain (ATCC 6919); settings: ATCC 6919
[3] = [3H]-labeled XMP.629, 0.3 mg/kg intravenous, estimate

Compound: CC(C)C[C@@H](NC(=O)[C@H](N)CCCCN)C(=O)N[C@H](Cc1ccccc1)C(=O)N[C@H](CCCNC(=N)N)C(=O)N[C@H](Cc1cccc2ccccc12)C(=O)N[C@H](CCC(N)=O)C(=O)N[C@H](C)C(=O)N[C@H](CCCCN)C(=O)N[C@H](Cc1cccc2ccccc12)C(N)=O [XMP.629, NH2-lys-leu-phe-arg-(3-(1-naphthyl)-ala)-gln-ala-lys-(3-(1-naphthyl)-ala)-CONH2] (H-[dK][dL][dF][dR][d1Nal][dQ][dA][dK][d1Nal]-NH2)
- Minimum Inhibitory Concentrations (Escherichia coli; Escherichia coli 07:K1): 4.00 µg/mL
- Minimum Inhibitory Concentrations (Escherichia coli; Escherichia coli 0111:B4): 2.00 µg/mL
- Minimum Inhibitory Concentrations (Bacteroides fragilis): 16.0 µg/mL
- Minimum Inhibitory Concentrations [1]: 4.00 µg/mL
- Minimum Inhibitory Concentrations (Serratia marcescens; Serratia marcescens 13880): 64.0 µg/mL
- Minimum Inhibitory Concentrations (Serratia marcescens; Serratia marcescens 14756): 32.0 µg/mL
- Minimum Inhibitory Concentrations (Prevotella intermedia): 2.00 µg/mL
- Minimum Inhibitory Concentrations (Proteus mirabilis): >64 µg/mL
- Minimum Inhibitory Concentrations (Porphyromonas gingivalis): 4.00 µg/mL
- Minimum Inhibitory Concentrations (Salmonella ryphimurium): 4.00 µg/mL
- Minimum Inhibitory Concentrations (Klebsiella pneumoniae; Klebsiella pneumoniae 19645): 2.00 µg/mL
- Minimum Inhibitory Concentrations (Klebsiella pneumoniae; Klebsiella pneumoniae 29011): 8.00 µg/mL
- Minimum Inhibitory Concentrations (Burkholderia cepacia): 32.0 µg/mL
- chromosomal aberrations in CHO cells (CHO cells): negative
- MIC/MBC [2]: >4 µg/mL
- CL (clearance) ([3]; male Sprague-Dawley rats, three compartment model): 358.7 g plasma/hr/kg
- C0 (extrapolated plasma concentration at time 0) ([3]; rat): 2.49 μg equivalents/g
- Vc (volume of distribution of the central compartment) ([3]; rat): 0.121 L/kg
- Vss (volume of distribution at steady state) ([3]; rat): 1.657 L/kg
- t1/2 (average half-life) ([3]; rat): 13.8 min
- t1/2α (α half-life) ([3]; rat): 1.92 min
- t1/2β (β half-life) ([3]; rat): 46.2 min
- t1/2γ (γ half-life) ([3]; rat): 498 min

— US20050148495A1, “Methods and materials including for treating acne” (priority 2003, published 2005)
